Reference: article PMC1079853, “Alkane-induced expression, substrate binding profile, and immunolocalization of a cytochrome P450 encoded on the nifD excision element of Anabaena 7120” (BMC Microbiology, 2005)

Target: T1, CYP110 (Nostoc sp. PCC 7120 = FACHB-418, UniProt P29980)
T1 construct: recombinant, expressed in E. coli from pUC8 vector, purified soluble fraction; about 50 kDa; U38537 is the complete nifD element carrying cyp110
T1 sequence (P29980 1-459): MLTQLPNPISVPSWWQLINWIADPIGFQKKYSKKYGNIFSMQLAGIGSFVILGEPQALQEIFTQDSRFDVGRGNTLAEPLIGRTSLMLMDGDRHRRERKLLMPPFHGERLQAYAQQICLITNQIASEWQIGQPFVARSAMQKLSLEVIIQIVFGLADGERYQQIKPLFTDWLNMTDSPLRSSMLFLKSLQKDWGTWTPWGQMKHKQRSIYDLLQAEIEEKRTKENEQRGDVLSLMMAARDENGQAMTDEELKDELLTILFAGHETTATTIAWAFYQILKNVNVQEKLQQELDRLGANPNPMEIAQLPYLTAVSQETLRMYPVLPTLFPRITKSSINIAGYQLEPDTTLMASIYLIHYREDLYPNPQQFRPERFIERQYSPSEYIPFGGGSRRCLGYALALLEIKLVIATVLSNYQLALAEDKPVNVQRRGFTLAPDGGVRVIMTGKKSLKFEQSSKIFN
Assay: UV-visible spectral shift titration
Type: binding
Conditions: read-out: Ks
Description: UV-visible spectral shift titration on CYP110

Structure (SMILES) | Kd [µM]
CCCCCCCCCN [Nonyl Amine] | 62
CCCCCCCCCCCCCC(=O)O [Tetradecanoic Acid] | 91
CCCCCCN [Hexyl Amine] | 320
CCCCCCCCCCCCCCC(=O)O [Pentadecanoic Acid] | 210
CCCCCCCCCCCC(=O)NC [N-methyl Lauryl Amide] | 2560
NCCCCCCCCCCCC(=O)O [12-Aminododecanoic Acid] | 416
CC/C=C\C/C=C\C/C=C\CCCCCCCC(=O)O [9,12,15-Octadecatrienoic Acid] | 62
CCCCCCCCCCCCN [Dodecyl Amine] | 12
CCCCCCCCCCCCCCCCCC(=O)O [Octadecanoic Acid] | 3100
CCCCC/C=C\C/C=C\C/C=C\C/C=C\CCCC(=O)O [Arachidonic Acid] | 51
CCCCCCCN [Heptyl Amine] | 102
CCCCCCCCCCN [Decyl Amine] | 41
CCCCCCCCCCCCCCCC(=O)O [Hexadecanoic Acid] | 500
CCCCCCCCCCCC(=O)O [Dodecanoic Acid] | 1900
CCCCCC=CCC=CCCCCCCCC(=O)O [9,12-Octadecadienoic Acid] | 720
CCCCCCCCN [Ocytl Amine] | 81
CCCCCN [Pentyl Amine] | 540
CCCCCCCCCCCC(N)=O [Lauryl Amide] | 2210
CCCCCCCCCCCCCCCCC(=O)O [Heptadecanoic Acid] | 1100
CCCCCCCCCCCCC(=O)O [Tridecanoic Acid] | 850
